Consider 1 compound from patent publication US9248124B2, “Use of inhibitors of IκB kinase for the treatment of cancer” (Millennium Pharmaceuticals, Inc., priority 2001, dated 2016).

Common to all, as to assay type: cell-based, human
In experiment [1] the test system is IκBα phosphorylation and degradation in patient MM cells. In words: Immunoblot of IκBα phosphorylation and degradation triggered by TNFα in patient cells. Conditions: 10 μM for 90 min, TNFα 5 ng/mL, FIG. 1C. As to the method: Dex-sensitive (MM.1S) human MM cell line was kindly provided by Dr. Steven Rosen (Northwestern University, Chicago, Ill.). RPMI8226 and U266 human MM cells were obtained from American Type Culture Collection (Rockville, Md.). All MM cell lines cultured in RPMI-1640 containing 10% fetal bovine serum (FBS, Sigma Chemical Co., St. Louis, Mo.), […], 100 U/mL penicillin (Pen) and 100 μg/mL streptomycin (Strep) (GIBCO, Grand Island, N.Y.). Patient MM cells were purified from patient BM aspirates using RosetteSep separation system (StemCell Technologies, Vancouver, Canada). The purity of MM cells was confirmed by flow cytometry using PE-conjugated anti-CD138 antibody (Beckton Dickinson Co.).
(§1) MM cells were cultured with PS-341 or compound 1; harvested; washed; and lysed using lysis buffer: 50 mM Tris-HCl (pH 7.4), 150 mM NaCl, 1% NP-40, 5 mM EDTA, 5 mM NaF, 2 mM Na3VO4, 1 mM PMSF, 5 μg/mL leupeptin, and 5 μg/mL aprotinin. For detection of phospho-IκBα, IκBα, phospho-MAPK, phospho-STAT3, ERK2 or alpha-tubulin, cell lysates were subjected SDS-PAGE, transferred to PVDF membrane (Bio-Rad Laboratories, Hercules, Calif.), and immunoblotted with anti-phospho-IκBα, -IκBα, -phospho-MAPK, or -phospho-STAT3 Abs (Cell Signaling, Beverly, Mass.), and anti-alpha-tubulin (Sigma) Abs.
Inhibition of IκBα phosphorylation by compound 1 was assayed in MM.1S and patient MM cells triggered by TNFα. […]

In experiment [2] the test system is MM.1S cells adherent to BMSCs. In words: Paracrine MM.1S cell growth on BMSCs ([3H]-TdR uptake). Conditions: 0.4-10 μM, 48 h, dose dependent; FIG. 12B. As to the method: Proliferation was measured as previously described (Hideshima et al., Blood 96:2943 (2000)). MM cells (3×10^4 cells/well) were incubated in 96-well culture plates (Costar, Cambridge, Mass.) in the presence of media, PS-341, compound 1 and/or Dex or recombinant human IL-6 (Genetics Institute, Cambridge, Mass.) for 48 h at 37° C. DNA synthesis was measured by [^3H]-thymidine ([^3H]-TdR, NEN Products, Boston, Mass.) uptake. Cells were pulsed with [^3H]TdR (0.5 μCi/well) during the last 8 h of 48 h cultures. All experiments were performed in triplicate.
(§2) To evaluate growth stimulation and signaling in MM cells adherent to BMSCs, 3×10^4 MM.1S cells were cultured in BMSC coated 96-well plates for 48 h, in the presence or absence of compound 1. DNA synthesis was measured as described above. The Duoset ELISA (R&D System) was used to measure IL-6 in supernatants of 48 h cultures of BMSCs with or without MM.1S cells, in the presence or absence of compound 1.

The next experiment deals with IL-6 secretion in BMSCs. In words: IL-6 secretion in BMSC cultures with or without MM.1S cells (ELISA). Particulars: 0.4-10 μM, 48 h, dose dependent; FIG. 12A.
Description: BM specimens were obtained from patients with MM. Mononuclear cells (MNCs) separated by Ficoll-Hipaque density sedimentation were used to established long-term BM cultures, as previously described (Uchiyama et al., Blood 82:3712-3720 (1993)). When an adherent cell monolayer had developed, cells were harvested in Hank's Buffered Saline Solution (HBSS) containing 0.25% trypsin and 0.02% EDTA, washed, and collected by centrifugation.
as §2

Experiment [3] deals with IκBα phosphorylation and degradation in MM.1S cells. In words: Immunoblot of IκBα phosphorylation and degradation triggered by TNFα in MM.1S cells. The procedure: as §1
Inhibition of IκBα phosphorylation by compound 1 was assayed in MM.1S and patient MM cells triggered by TNFα. […] To study the dose-dependent effect of compound 1, MM.1S cells were pre-treated with 1.25-40 μM compound 1 for 90 min, and then stimulated by TNFα (5 ng/mL).
The effect of Dex, compound 1, PS-341 and/or IL-6 on TNFα induced phosphorylation of IκBα in MM.1S cells was next examined. […] In contrast compound 1, in the presence or absence of IL-6, inhibits phosphorylation of IκBα. Dex inhibits TNFα-induced degradation of IκBα, whereas IL-6 blocks this effect. Both PS-341 and compound 1 inhibit degradation of IκBα, in the presence or absence of IL-6.
A general note: A western blot detects proteins with antibodies after separation by electrophoresis.

For experiment [4], the system named is p42/44 MAPK phosphorylation. Kind of experiment: Immunoblot of IL-6 induced p42/44 MAPK phosphorylation in MM.1S cells. Conditions: IL-6 50 ng/mL for 5 min, compound 1 10 μM 90 min, PS-341 5 μM 60 min, FIG. 5. The procedure: as §1

Some results are limits rather than exact numbers.

With `O=C(Nc1cc(Cl)cc2c1[nH]c1cnccc12)c1cccnc1` [compound 1, N-(6-chloro-9H-β-carbolin-8-yl)-nicotinamide], in experiment [1], the “phosphorylation and degradation of IκBα triggered by TNFα” value is given as “inhibited”. In addition, in experiment [2], the “increased MM.1S cell growth triggered by adherence to BMSCs” value is recorded as “inhibits”. In the experiment with IL-6 secretion in BMSCs, the “constitutive secretion of IL-6 in BMSCs” value is “blocks” and the “increased IL-6 secretion triggered by adhesion of MM.1S cells to BMSCs” value is on record as “blocks”. Besides, the “TNFα-induced phosphorylation of IκBα” value in experiment [3] (Dex 1 μM 18 h, PS-341 5 μM 60 min, compound 1 10 μM 90 min, presence or absence of IL-6, TNFα 5 ng/mL 5 min, FIG. 7) is listed as “inhibits”. Further, the “TNFα-induced degradation of IκBα” value in experiment [3] (Dex 1 μM 18 h, PS-341 5 μM 60 min, compound 1 10 μM 90 min, TNFα 5 ng/mL 5 min, FIG. 7) was “inhibit”. Besides, the “phosphorylation and degradation of IκBα” value in experiment [3] (compound 1 pre-treatment 10 μM for 90 min, then TNFα 5 ng/mL, FIG. 1A) is given as “completely blocked”. For the same compound, the “concentration at which phosphorylation of IκBα was completely inhibited” value in experiment [3] (pre-treated with 1.25-40 μM for 90 min, then TNFα 5 ng/mL, FIG. 1B) was not below 5 µM. Moreover, the “p42/44 MAPK phosphorylation” value in experiment [4] is listed as “does not inhibit”.
